Assay results published in patent US9012512B2, “Aqueous extracts from monocotyledon plants and their use in cardioprotection” (priority 2008, dated 2015).

Legend:
Type in all cases: cell-based
[1] = system: rat thoracic aorta; assay: Combined vasorelaxing effects of TAA with GTN or SNP: phenylephrine-induced tension in rat thoracic aorta; conditions: 0.1 μM agent alone; control vehicle 2.1 g
Description: The rats were allowed to acclimate in environmentally controlled quarters (20-22° C. with 12:12 hr light-dark cycles). […] After equilibration, the aortic rings were stabilized with a near maximal contraction induced by 0.3 μM phenylephrine. When the rings achieved a stable level of contraction, 3 μM acetylcholine was added to the bath, in which the aorta rings were soaked, to assess endothelial integrity. Intimas were gently frayed with a cotton swab to disrupt the endothelium.

[2] = system: rat thoracic aorta; assay: Relaxation of phenylephrine-contracted rat aortic rings in the presence of acetylcholine; conditions: 0.3 μM phenylephrine, acetylcholine 3 μM present
Description: Male Sprague-Dawley rats, weighing 250-350 g (Laboratory Animal Science Center of the National Yang-Ming University, Taipei, Taiwan), were used in this study. The rats were allowed to acclimate in environmentally controlled quarters (20-22° C. with 12:12 hr light-dark cycles). Thoracic aorta was excised carefully and fixed isometrically in organ chambers (15 mL) containing a 37° C. modified Krebs' solution (120 mM NaCl, 4.5 mM KCl, 2.5 mM CaCl2, 1 mM MgSO4, 27 mM NaHCO3, 1 mM KH2PO4, 10 mM glucose, pH 7.4) through which a mixture of 95% O2-5% CO2 was continuously supplied. The aortic rings of 3-4 mm were equilibrated under passive tension of 1.8 g for 60 min. After equilibration, the aortic rings were stabilized with a near maximal contraction induced by 0.3 μM phenylephrine. When the rings achieved a stable level of contraction, 3 μM acetylcholine was added to the bath, in which the aorta rings were soaked, to assess endothelial integrity. Intimas were gently frayed with a cotton swab to disrupt the endothelium.
The relaxation effect of TAA on rat thoracic aorta in the presence of acetylcholine was also investigated. Vascular contraction in rat aortic rings was induced by 0.3 μM phenylephrine as described above. Acetylcholine (3 μM) was added to the bath, in which the aortic rings were soaked, to assess endothelial integrity. […]

[3] = system: rat thoracic aorta; assay: Vasorelaxing effect on phenylephrine-induced contraction of rat thoracic aortic rings

SMILES	phenylephrine-induced tension [1] [g]	increase of relaxation ([2]; TAA 100 μM, n=16) [%]	relaxation levels ([2]; TAA 0.1-100 μM)	maximum relaxation induced ([3]; TAA 100 μM, contraction induced by 10 μM phenylephrine, n=16) [%]	vasorelaxing effect in rat thoracic aorta ([3]; TAA 100 μM, phenylephrine precontracted aortic rings)	relaxation in phenylephrine-induced contraction ([3]; endothelium-intact preparations)
O=[N+]([O-])OCC(CO[N+](=O)[O-])O[N+](=O)[O-] [GTN, glyceryltrinitrate]	1.3					
O=C(O)/C=C(\CC(=O)O)C(=O)O [TAA, trans-aconitic acid]		55	significant increase of relaxation levels	40	significant vasorelaxing effect	concentration-dependent relaxation
